Data taken from patent US11040975B2, “Carbocyclic nucleoside reverse transcriptase inhibitors” (Merck Sharp & Dohme Corp., priority 2017, dated 2021).
pIC50: −log10 of the molar value.

system: HIV-1 (H9IIIB virus); assay: Viking assay: antiviral potency in a multiple round HIV-1 infection assay (MT4-GFP cells); format: cell-based; conditions: Human immunodeficiency virus 1, MT4-GFP cells, 10% normal human serum; inhibition of reproductive ratio R0; read-out: Viking, IC50 (10% NHS)
Protocol: Assessing Antiviral Potency in a Multiple Round HIV-1 Infection Assay.
HIV-1 replication was monitored using MT4-gag-GFP clone D3 (hereafter designate MT4-GFP), which are MT-4 cells modified to harbor a GFP reporter gene, the expression of which is dependent on the HIV-1 expressed proteins tat and rev. Productive infection of an MT4-GFP cell with HIV-1 results in GFP expression approximately 24h post-infection.
MT4-GFP cells were maintained at 37° C./5% CO2/90% relative humidity in RPMI 1640 supplemented with 10% fetal bovine serum, 100 U/mL penicillin/streptomycin, and 400 μg/mL G418 to maintain the reporter gene. For infections, MT4-GFP cells were placed in the same medium lacking G418 and infected overnight with H9IIIB virus at an approximate multiplicity of infection of 0.01 in the same incubation conditions. Cells were then washed and re-suspended in either RPMI 1640 containing 10% or 50% normal human serum at 1.6×10^5 cells/mL. Compound plates were prepared by dispensing compounds dissolved in DMSO into wells of 384 well poly D lysine-coated plates ([…]) using an ECHO acoustic dispenser. Each compound was tested in a 10 point serial 3-fold dilution (typical final concentrations: 8.4 μM-0.43 nM). Controls included no inhibitor (DMSO only) and a combination of three antiviral agents (efavirenz, indinavir, and an integrase strand transfer inhibitor at final concentrations of 4 μM each). Cells were added (50 μL/well) to compound plates and the infected cells were maintained at 37° C./5% CO2/90% relative humidity.
Infected cells were quantified at two time points, ˜48h and ˜72h post-infection, by counting the number of green cells in each well using an Acumen eX3 scanner. The increase in the number of green cells over ˜24h period gives the reproductive ratio, R0, which is typically 5-15 and has been shown experimentally to be in logarithmic phase (data not shown). Inhibition of R0 is calculated for each well, and IC50s determined by non-linear 4-parameter curve fitting.

Row | SMILES | pIC50
1 | C#C[C@]1(CO[P@@](=O)(N[C@@H](C)C(=O)OC(C)C)Oc2ccccc2)C[C@@H](n2cnc3c(OCC)nc(N)nc32)C[C@@H]1O (mixture of isomers) [Example 39A and 39B, Isopropyl ((S)-(((1S,2S,4R)-4-(2-amino-6-ethoxy-9H-purin-9-yl)-1-ethynyl-2-hydroxycyclopentyl)methoxy)(phenoxy)phosphoryl)-L-alaninate and Isopropyl ((S)-(((1R,2R,4S)-4-(2-amino-6-ethoxy-9H-purin-9-yl)-1-ethynyl-2-hydroxycyclopentyl)methoxy)(phenoxy)phosphoryl)-L-alaninate] | 7.57
2 | C#C[C@]1(CO)C[C@@H](n2cnc3c(Cl)nc(F)nc32)C[C@@H]1O (racemic) [Example (+/−) 12, (1S,2S,4R)-4-(6-chloro-2-fluoro-9H-purin-9-yl)-2-ethynyl-2-(hydroxymethyl)cyclopentan-1-ol and (1R,2R,4S)-4-(6-chloro-2-fluoro-9H-purin-9-yl)-2-ethynyl-2-(hydroxymethyl)cyclopentan-1-ol] | < 4.38
3 | C#C[C@]1(CO)C[C@@H](n2ccc3c(Cl)nc(Cl)nc32)C[C@@H]1O (racemic) [Example (+/−) 21, (1S,2S,4R)-4-(2,4-dichloro-7H-pyrrol[2,3-d]pyrimidin-7-yl)-2-ethynyl-2-(hydroxymethyl)cyclopentan-1-ol and (1R,2R,4S)-4-(2,4-dichloro-7H-pyrrolo[2,3-d]pyrimidin-7-yl)-2-ethynyl-2-(hydroxymethyl)cyclopentan-1-ol] | < 4.38
4 | C#C[C@]1(CO)C[C@@H](n2ccc3c(N)nc(Cl)nc32)C[C@@H]1O (racemic) [Example (+/−) 22, (1S,2S,4R)-4-(4-amino-2-chloro-7H-pyrrolo[2,3-d]pyrimidin-7-yl)-2-ethynyl-2-(hydroxymethyl)cyclopentan-1-ol and (1R,2R,4S)-4-(4-amino-2-chloro-7H-pyrrolo[2,3-d]pyrimidin-7-yl)-2-ethynyl-2-(hydroxymethyl)cyclopentan-1-ol] | 4.65
5 | C#C[C@]1(CO)C[C@@H](n2cnc3c(=O)[nH]c(N)nc32)C[C@@H]1O (racemic) [Example (+/−) 26, 2-amino-9-((1R,3S,4S)-3-ethynyl-4-hydroxy-3-(hydroxymethyl)cyclopentyl)-1,9-dihydro-6H-purin-6-one and 2-amino-9-((1S,3R,4R)-3-ethynyl-4-hydroxy-3-(hydroxymethyl)cyclopentyl)-1,9-dihydro-6H-purin-6-one] | 6.71
6 | C#C[C@]1(CO)C[C@@H](n2cnc3c(OCC)nc(N)nc32)C[C@@H]1O (racemic) [Example (+/−) 30, (1S,2S,4R)-4-(2-amino-6-ethoxy-9H-purin-9-yl)-2-ethynyl-2-(hydroxymethyl)cyclopentan-1-ol and (1R,2R,4S)-4-(2-amino-6-ethoxy-9H-purin-9-yl)-2-ethynyl-2-(hydroxymethyl)cyclopentan-1-ol] | 6.21
7 | C#C[C@]1(CO)C[C@@H](n2cc(C)c(=O)[nH]c2=O)C[C@@H]1O (racemic) [Example (+/−) 34, 1-((1R,3S,4S)-3-ethynyl-4-hydroxy-3-(hydroxymethyl)cyclopentyl)-5-methylpyrimidine-2,4(1H,3H)-dione and 1-((1S,3R,4R)-3-ethynyl-4-hydroxy-3-(hydroxymethyl)cyclopentyl)-5-methylpyrimidine-2,4(1H,3H)-dione] | < 4.38
8 | C#C[C@]1(CO)C[C@@H](n2ccc(N)nc2=O)C[C@@H]1O (racemic) [Example (+/−) 38, 4-amino-1-((1R,3S,4S)-3-ethynyl-4-hydroxy-3-(hydroxymethyl)cyclopentyl)pyrimidin-2(1H)-one and 4-amino-1-((1S,3R,4R)-3-ethynyl-4-hydroxy-3-(hydroxymethyl)cyclopentyl)pyrimidin-2(1H)-one] | < 4.38
9 | N#C[C@]1(CO)C[C@@H](n2cnc3c(=O)[nH]c(N)nc32)C[C@@H]1O (racemic) [Example (+/−) 61, (1S,2S,4R)-4-(2-amino-6-oxo-1,6-dihydro-9H-purin-9-yl)-2-hydroxy-1-(hydroxymethyl)cyclopentane-1-carbonitrile and (1R,2R,4S)-4-(2-amino-6-oxo-1,6-dihydro-9H-purin-9-yl)-2-hydroxy-1-(hydroxymethyl)cyclopentane-1-carbonitrile] | 6.00
10 | N#C[C@]1(CO)C[C@@H](n2ccc(N)nc2=O)C[C@@H]1O (racemic) [Example (+/−) 65, (1S,2S,4R)-4-(4-amino-2-oxopyrimidin-1(2H)-yl)-2-hydroxy-1-(hydroxymethyl)cyclopentane-1-carbonitrile and (1R,2R,4S)-4-(4-amino-2-oxopyrimidin-1(2H)-yl)-2-hydroxy-1-(hydroxymethyl)cyclopentane-1-carbonitrile] | < 4.38
11 | Cc1cn([C@H]2C[C@H](O)[C@@](C#N)(CO)C2)c(=O)[nH]c1=O (racemic) [Example (+/−) 69, (1S,2S,4R)-2-hydroxy-1-(hydroxymethyl)-4-(5-methyl-2,4-dioxo-3,4-dihydropyrimidin-1(2H)-yl)cyclopentane-1-carbonitrile and (1R,2R,4S)-2-hydroxy-1-(hydroxymethyl)-4-(5-methyl-2,4-dioxo-3,4-dihydropyrimidin-1(2H)-yl)cyclopentane-1-carbonitrile] | 4.80
12 | C#C[C@]1(CO)C[C@@H](n2cnc3c(N)nc(Cl)nc32)C[C@@H]1O (single isomer, unassigned) [Example 18B, (1S,2S,4R)-4-(6-amino-2-chloro-9H-purin-9-yl)-2-ethynyl-2-(hydroxymethyl)cyclopentan-1-ol or (1R,2R,4S)-4-(6-amino-2-chloro-9H-purin-9-yl)-2-ethynyl-2-(hydroxymethyl)cyclopentan-1-ol] | 4.93
13 | C#C[C@@]1(CO[P@@](=O)(N[C@@H](C)C(=O)OC(C)C)Oc2ccccc2)C[C@H](n2cnc3c(OCC)nc(N)nc32)C[C@H]1O (single isomer, unassigned) [Example 39A, Isopropyl ((S)-(((1S,2S,4R)-4-(2-amino-6-ethoxy-9H-purin-9-yl)-1-ethynyl-2-hydroxycyclopentyl)methoxy)(phenoxy)phosphoryl)-L-alaninate or Isopropyl ((S)-(((1R,2R,4S)-4-(2-amino-6-ethoxy-9H-purin-9-yl)-1-ethynyl-2-hydroxycyclopentyl)methoxy)(phenoxy)phosphoryl)-L-alaninate] | 6.32
14 | C#C[C@]1(CO[P@@](=O)(N[C@@H](C)C(=O)OC(C)C)Oc2ccccc2)C[C@@H](n2cnc3c(OCC)nc(N)nc32)C[C@@H]1O (single isomer, unassigned) [Example 39B, Isopropyl ((S)-(((1S,2S,4R)-4-(2-amino-6-ethoxy-9H-purin-9-yl)-1-ethynyl-2-hydroxycyclopentyl)methoxy)(phenoxy)phosphoryl)-L-alaninate or Isopropyl ((S)-(((1R,2R,4S)-4-(2-amino-6-ethoxy-9H-purin-9-yl)-1-ethynyl-2-hydroxycyclopentyl)methoxy)(phenoxy)phosphoryl)-L-alaninate] | 8.23
15 | N#C[C@]1(CO)C[C@@H](n2cnc3c(N)nc(F)nc32)C[C@@H]1O (single isomer, unassigned) [Example 73A, (1S,2S,4R)-4-(6-amino-2-fluoro-9H-purin-9-yl)-2-hydroxy-1-(hydroxymethyl)cyclopentane-1-carbonitrile or (1R,2R,4S)-4-(6-amino-2-fluoro-9H-purin-9-yl)-2-hydroxy-1-(hydroxymethyl)cyclopentane-1-carbonitrile] | < 4.38
16 | N#C[C@@]1(CO)C[C@H](n2cnc3c(N)nc(F)nc32)C[C@H]1O (single isomer, unassigned) [Example 73B, (1S,2S,4R)-4-(6-amino-2-fluoro-9H-purin-9-yl)-2-hydroxy-1-(hydroxymethyl)cyclopentane-1-carbonitrile or (1R,2R,4S)-4-(6-amino-2-fluoro-9H-purin-9-yl)-2-hydroxy-1-(hydroxymethyl)cyclopentane-1-carbonitrile] | 4.96

same assay, conditions: MT4-GFP cells, 10% normal human serum; inhibition of reproductive ratio R0; read-out: Viking, IC50 (10% NHS)

Row | SMILES | pIC50
17 | C#C[C@]1(CO)C[C@@H](n2cnc3c(=O)[nH]c(N)nc32)C[C@@H]1O (single isomer, unassigned) [Example 26A, 2-amino-9-((lR,3S,4S)-3-ethynyl-4-hydroxy-3-(hydroxymethyl)cyclopentyl)-1,9-dihydro-6H-purin-6-one or 2-amino-9-((1S,3R,4R)-3-ethynyl-4-hydroxy-3-(hydroxymethyl)cyclopentyl)-1,9-dihydro-6H-purin-6-one] | < 4.38
18 | C#C[C@]1(CO)C[C@@H](n2cnc3c(=O)[nH]c(N)nc32)C[C@@H]1O (single isomer, unassigned) [Example 26B, 2-amino-9-((1R,3S,4S)-3-ethynyl-4-hydroxy-3-(hydroxymethyl)cyclopentyl)-1,9-dihydro-6H-purin-6-one or 2-amino-9-((1S,3R,4R)-3-ethynyl-4-hydroxy-3-(hydroxymethyl)cyclopentyl)-1,9-dihydro-6H-purin-6-one] | 6.85
